The text below walks through data of article PMC12751141, “Disrupting α-Synuclein–ClpP interaction restores mitochondrial function and attenuates neuropathology in Parkinson’s disease models” (Molecular Neurodegeneration, 2025).

The test system of the assay is ClpP–αSyn interaction. Put plainly: ClpP–αSyn co-immunoprecipitation in iPSC-derived neurons. Format: cell-based, human. The note with it: A53T-αSyn neurons; 1 µM, five days; n = 4. The text has this:
PD iPS cells lines (αSyn A53T, NN0004337, donor) and its isogenic corrected control line (NN0004344) were obtained from RUCDR Infinite Biologics. The iPS cells were differentiated into dopaminergic neuron-enriched neuronal culture with the protocol described previously. Briefly, iPS cell colonies were disassociated with accutase (Invitrogen), plated onto 6-well plates pre-coated with 2.5% Matrigel (BD Biosciences) and allowed to reach 80% confluence in mTeSR medium (Stem Cell Technology). For the first 10 days, cells were treated with SB431542 (10 µM; Tocris Bioscience) and Noggin (100 ng/ml) in Neural Media (NM) with FGF2 ([…]) and EGF ([…]). NM media contained: Neurobasal and DMEM/F12 (1:1), B-27 Supplement Minus Vitamin A (50×, Invitrogen), N2 Supplement (100X, Invitrogen), GlutaMAX (Invitrogen, 100×), 100 units/ml penicillin and 100 µg/ml streptomycin (Fisher); for the next 4 days, cells were treated with human recombinant Sonic hedgehog (SHH, 200 ng/ml) in neuronal differentiation medium. […]
Cells or tissues were lysed in total lysis buffer (50mM Tris-HCl, pH 7.5, 150mM NaCl, 1% Triton X-100, and protease inhibitor). […] The beads with immuno-precipitates were pulled down at 4000 g and washed four times with total lysis buffer/in vitro interaction buffer in the presence of 0.1% Triton X-100 and were analyzed by western blot analysis. […]

Turning to `CC(C)[C@H](NC(=O)CNC(=O)CNC(=O)CCCCCNC(=O)[C@H](CCCNC(=N)N)NC(=O)[C@H](CCCNC(=N)N)NC(=O)[C@H](CCCNC(=N)N)NC(=O)[C@H](CCC(N)=O)NC(=O)[C@H](CCCNC(=N)N)NC(=O)[C@H](CCCNC(=N)N)NC(=O)[C@H](CCCCN)NC(=O)[C@H](CCCCN)NC(=O)[C@H](CCCNC(=N)N)NC(=O)CNC(=O)[C@@H](N)Cc1ccc(O)cc1)C(=O)N[C@H](C(=O)N[C@H](C(=O)N[C@@H](C)C(=O)O)[C@@H](C)O)C(C)C` [CS2, TAT-C6-GGVVTA], the “ClpP–αSyn interaction by co-IP” value is listed as “markedly reduced the ClpP–αSyn interaction”.
